Data: EP2735563A1, “Meta substituted 2-[phenoxy-phenyl]-1-[1,2,4]triazol-1-yl-ethanol compounds and their use as fungicides” (BASF SE, priority 2012, dated 2014)

How the values were obtained:
Format in all cases: cell-based
Conditions in all cases: relative growth vs active compound-free control (100%), absorption at 405 nm 7 days after inoculation, 18°C
Pyricularia oryzae = tested on: Pyricularia oryzae
Botrytis cinerea = experiment: Activity against the grey mold Botrytis cinerea in the microtiterplate test (Botrci)
Septoria tritici = experiment: Activity against leaf blotch on wheat caused by Septoria tritici (Septtr), microtiter plate test

SMILES	Growth (%) at 31 ppm Pyrior (Pyricularia oryzae) [%]	Growth (%) at 31 ppm Botrci (Botrytis cinerea) [%]	Growth (%) at 31 ppm Septtr (Septoria tritici) [%]
COC(C)(Cn1cncn1)c1ccc(Oc2ccc(Cl)cc2)c(Cl)c1 (centres unmarked) [Compound I-3, 1-[2-[3-chloro-4-(4-chlorophenoxy)phenyl]-2-methoxy-propyl]-1,2,4-triazole]	0		
CC(O)(Cn1cncn1)c1ccc(Oc2ccc(Cl)cc2)c(Cl)c1 (centres unmarked) [Compound I-4, 2-[3-chloro-4-(4-chlorophenoxy)phenyl]-1-(1,2,4-triazol-1-yl)propan-2-ol]	0	17	
OC(Cn1cncn1)c1ccc(Oc2ccc(Cl)cc2)c(Cl)c1 (centres unmarked) [Compound I-2, 1-[3-Chloro-4-(4-chlorophenoxy)phenyl]-2-(1,2,4-triazol-1-yl)ethanol]	1	13	
COC(C)(Cn1cncn1)c1ccc(Oc2ccc(Cl)cc2)c(C(F)(F)F)c1 (centres unmarked) [Compound I-6]	0		
CC(O)(Cn1cncn1)c1ccc(Oc2ccc(Cl)cc2)c(C(F)(F)F)c1 (centres unmarked) [Compound I-5]	0		14
